Results as given in patent publication US9181188B2, “Aryl ureas as kinase inhibitors” (Bayer Healthcare LLC, priority 2002, dated 2015).

- melting point: 232 to 234 °C
SMILES: CNC(=O)c1cc(Oc2ccc(NC(=O)Nc3ccc(Cl)c(C(F)(F)F)c3)cc2)cc[n+]1[O-] [Example 1, N-[4-chloro-3-(trifluoromethyl)phenyl]-N′-{4-[2-(N-methylcarbamoyl)-1-oxo-(4-pyridyloxy)]phenyl}urea]
